Assay [1] addresses EGFR L858R (Homo sapiens (Human), UniProt P00533, L858R). Briefly: HTRF-based EGFR biochemical assay (L858R). The settings on record: 100 μM ATP. Here is the method:
(§1) EGFR biochemical activity measurements were carried out using the homogeneous time-resolved fluorescence (HTRF) assay (Cisbio). Inhibitors and DMSO normalizations were first dispensed to empty black low-volume 384-well plates (Corning) with D300 digital liquid dispenser (HP). All reactions were carried out at room temperature and solutions were added to plates with a Multidrop Combi Reagent Dispenser (ThermoFisher). The reaction mixture (10 μL final volume) contained 1 μM tyrosine kinase peptide-biotin substrate and mutant EGFR in a reaction buffer (50 mM HEPES pH 7,0, 5 mM MgCl2,1 mM MnCl2, 0.01% BSA, 2 mM TCEP, 0.1 mM NaVO4). Enzyme concentrations were adjusted to accommodate varying kinase activities (L858R 0.1 nM, L858R!T790M 0,02 nM). Enzyme reaction solution (2× concentrations, 5 μL) was added to 384-well plates containing compounds and incubated for 30 mins. Enzyme reactions were initiated with the addition of […] of ATP to a final concentration of 100 μM and reacted for 20 mins. Reactions were quenched with the addition of 10 μL of phospho-tyrosine antibody-Europium(III) cryptate (1-to-180 volume ratio) and Streptavidin-XL665 (46.7 nM) in EDTA-containing detection buffer, then incubated at room temperature for 1 hour, and read with a PHERAstar plate reader (excitation =337 nm, emission =620 nm and 665 nm).

Assay [2] relates to EGFR L858R/T790M mutant Ba/F3 Cells. Briefly: Ba/F3 cell proliferation (Cell Titer Glo) in combination with cetuximab. The class given is cell-based, murine. The settings on record: 72 hours. From the text: The EGFR mutant L858R, Del E746_A750, L858R/T790M, Del E746_A750/T790M, L858R/T790MIC797S, and DellT790MIC797S Ba/F3 cells have been previously described (Zhou, W., et al, Nature 462, 2009, 1070-1074). All cell lines were maintained in RPM I 1640 (Cellgro; Mediatech Inc., Herndon, CA) supplemented with 10% FBS, 100 units/mL penicillin, 100 units/mL streptomycin. The EGFR 1941 R mutation was introduced via site directed mutagenesis using the Quick Change Site-Directed Mutagenesis kit (Stratagene; La Jolla, CA) according to the manufacturer's instructions. All constructs were confirmed by DNA sequencing. The constructs were shuttled into the retroviral vector JP1540 using the Cre-recombination system (Agilent Technologies, Santa Clara, CA). Ba/F3 cells were then infected with retrovirus per standard protocols, as described previously (Zhou, et al, Nature 2009). Stable clones were obtained by selection in puromycin (2 μg/ml),
Growth and inhibition of growth was assessed by the Cell Titer Glo assay (Promega, Madison, WI) and was performed according to the manufacturer's instructions. The Cell Titer Glo assay is a luminescence-based method used to determine the number of viable cells based on quantitation of the ATP present, which is directly proportional to the amount of metabolically active cells present. Ba/F3 cells of different EGFR genotypes were exposed to compounds as a single agent or in combination with […] for 72 hours and the number of cells used per experiment was determined empirically as has been previously established (Zhou, et al., Nature 2009). All experimental points were set up in triplicates in 384-well plates and all experiments were repeated at least three times. […] The curves were fitted using a non-linear regression model with a sigmoidal dose response.

In assay [3] the target is EGFR L858R/T790M (Homo sapiens (Human), UniProt P00533, L858R/T790M). The experiment in a line: HTRF-based EGFR biochemical assay (L858R/T790M). The note with it: 100 μM ATP. The procedure: as §1

Structures are written as SMILES. Some results are limits rather than exact numbers.

This passage reports IC50 results from patent US12377080B2, “Allosteric EGFR inhibitors and methods of use thereof” (Dana-Farber Cancer Institute, Inc., priority 2019, dated 2025).

EGFR L858R, sequence (P00533 25-1210 L858R): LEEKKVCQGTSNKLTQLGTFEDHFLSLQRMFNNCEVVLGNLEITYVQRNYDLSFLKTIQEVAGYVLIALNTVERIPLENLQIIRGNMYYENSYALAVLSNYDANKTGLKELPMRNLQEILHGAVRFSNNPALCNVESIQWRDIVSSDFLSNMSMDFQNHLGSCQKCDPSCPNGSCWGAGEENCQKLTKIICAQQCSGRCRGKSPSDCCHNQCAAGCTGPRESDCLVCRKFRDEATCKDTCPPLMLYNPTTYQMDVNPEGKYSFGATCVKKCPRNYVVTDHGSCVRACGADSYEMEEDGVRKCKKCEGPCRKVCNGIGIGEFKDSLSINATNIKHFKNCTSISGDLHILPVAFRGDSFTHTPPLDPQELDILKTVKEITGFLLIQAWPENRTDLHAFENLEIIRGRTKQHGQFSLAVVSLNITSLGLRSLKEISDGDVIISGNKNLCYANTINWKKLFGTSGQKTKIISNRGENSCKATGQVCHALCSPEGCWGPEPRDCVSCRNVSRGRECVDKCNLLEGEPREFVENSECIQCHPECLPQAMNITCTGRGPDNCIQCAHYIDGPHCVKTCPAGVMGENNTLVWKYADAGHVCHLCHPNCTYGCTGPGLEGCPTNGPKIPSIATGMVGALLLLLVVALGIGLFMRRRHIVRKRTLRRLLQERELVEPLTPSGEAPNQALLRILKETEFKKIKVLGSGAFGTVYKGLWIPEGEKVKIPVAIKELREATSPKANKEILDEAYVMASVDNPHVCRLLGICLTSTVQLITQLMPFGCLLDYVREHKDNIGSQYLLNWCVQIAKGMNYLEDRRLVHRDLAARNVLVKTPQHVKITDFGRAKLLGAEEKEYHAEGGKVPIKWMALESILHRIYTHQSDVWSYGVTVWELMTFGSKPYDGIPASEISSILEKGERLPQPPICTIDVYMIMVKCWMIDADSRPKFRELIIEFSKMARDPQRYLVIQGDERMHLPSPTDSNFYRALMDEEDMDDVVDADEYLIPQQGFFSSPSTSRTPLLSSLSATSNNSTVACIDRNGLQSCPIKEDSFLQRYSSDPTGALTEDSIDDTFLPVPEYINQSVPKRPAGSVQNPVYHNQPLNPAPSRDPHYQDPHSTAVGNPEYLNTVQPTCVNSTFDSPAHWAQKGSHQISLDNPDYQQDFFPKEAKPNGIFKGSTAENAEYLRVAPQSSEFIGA
EGFR L858R/T790M, sequence (P00533 25-1210 T790M/L858R): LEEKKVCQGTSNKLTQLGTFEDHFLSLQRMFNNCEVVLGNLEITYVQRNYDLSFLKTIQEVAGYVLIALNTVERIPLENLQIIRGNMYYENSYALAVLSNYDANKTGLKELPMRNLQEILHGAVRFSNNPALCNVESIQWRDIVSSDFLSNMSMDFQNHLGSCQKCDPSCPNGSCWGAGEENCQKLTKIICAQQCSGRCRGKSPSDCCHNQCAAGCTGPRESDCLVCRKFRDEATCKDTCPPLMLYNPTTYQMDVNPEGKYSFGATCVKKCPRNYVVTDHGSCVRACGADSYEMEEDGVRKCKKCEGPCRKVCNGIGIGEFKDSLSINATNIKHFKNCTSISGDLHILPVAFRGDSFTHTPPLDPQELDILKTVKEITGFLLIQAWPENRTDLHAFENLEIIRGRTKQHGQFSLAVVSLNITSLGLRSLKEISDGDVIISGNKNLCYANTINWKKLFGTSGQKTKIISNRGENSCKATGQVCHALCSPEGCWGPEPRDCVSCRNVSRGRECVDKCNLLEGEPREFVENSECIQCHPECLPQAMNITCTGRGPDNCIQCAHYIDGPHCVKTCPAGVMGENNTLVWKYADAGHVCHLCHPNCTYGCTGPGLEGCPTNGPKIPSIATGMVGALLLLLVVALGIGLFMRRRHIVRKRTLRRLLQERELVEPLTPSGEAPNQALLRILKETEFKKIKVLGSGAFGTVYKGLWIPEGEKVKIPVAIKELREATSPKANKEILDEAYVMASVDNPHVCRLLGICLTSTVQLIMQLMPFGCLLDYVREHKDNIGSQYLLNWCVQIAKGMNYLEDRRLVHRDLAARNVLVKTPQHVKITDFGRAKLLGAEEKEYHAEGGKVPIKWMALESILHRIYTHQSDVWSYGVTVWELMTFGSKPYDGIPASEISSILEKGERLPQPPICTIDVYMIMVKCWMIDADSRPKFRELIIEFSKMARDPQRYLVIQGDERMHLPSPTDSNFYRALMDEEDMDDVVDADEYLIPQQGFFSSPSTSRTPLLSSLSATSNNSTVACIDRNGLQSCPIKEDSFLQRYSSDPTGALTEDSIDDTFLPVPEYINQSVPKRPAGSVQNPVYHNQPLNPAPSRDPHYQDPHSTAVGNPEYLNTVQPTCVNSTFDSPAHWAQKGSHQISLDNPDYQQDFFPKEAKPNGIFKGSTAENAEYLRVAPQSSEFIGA

In the case of `CN1CCN(c2ccc(-c3cc4c(cn3)CN(C(C(=O)Nc3nccs3)c3cccc(F)c3)C4=O)cc2)CC1` (centres unmarked) [Compound 7, 2-(3-fluorophenyl)-2-(6-(4-(4-methylpiperazin-1-yl)phenyl)-1-oxo-1,3-dihydro-2H-pyrrolo-[3,4-c]pyridin-2-yl)-N-(thiazol-2-yl)acetamide], the IC50 worked out at 0.301 µM in assay [1], 480 nM in assay [2] and 10 nM in assay [3].

Consider `CN1CCC(c2ccc(-c3cnc4c(c3)C(=O)N(C(C(=O)Nc3nccs3)c3cccc(F)c3)C4)cc2)CC1` (centres unmarked) [Compound 9, 2-(3-fluorophenyl)-2-(3-(4-(1-methylpiperidin-4-yl)phenyl)-5-oxo-5,7-dihydro-6H-pyrrolo-[3,4-b]pyridin-6-yl)-N-(thiazol-2-yl)acetamide], for which the IC50 in assay [1] amounted to 0.005 µM; in assay [2], 10 nM; in assay [3] it was 1 nM.

With `CN1CCN(c2ccc(-c3ccc4c(n3)C(=O)N(C(C(=O)Nc3nccs3)c3cccc(F)c3)C4)cc2)CC1` (centres unmarked) [Compound 14, 2-(3-fluorophenyl)-2-(2-(4-(4-methylpiperazin-1-yl)phenyl)-7-oxo-5,7-dihydro-6H-pyrrolo-[3,4-b]pyridin-6-yl)-N-(thiazol-2-yl)acetamide], the IC50 in assay [1] is 0.032 µM; in assay [2], 120 nM; in assay [3], 4 nM.

Regarding `O=C(Nc1ccccn1)C(c1cccc(F)c1)N1Cc2ncc(Br)cc2C1=O` (centres unmarked) [Compound 3, 2-(3-bromo-5-oxo-5,7-dihydro-6H-pyrrolo[3,4-b]pyridin-6-yl)-2-(3-fluorophenyl)-N-(pyridin-2-yl)acetamide], the IC50 in assay [2] was 2370 nM.

As to `O=C(Nc1nccs1)C(c1cccc(F)c1)N1Cc2ccc(Br)nc2C1=O` (centres unmarked) [Compound 4, 2-(2-bromo-7-oxo-5,7-dihydro-6H-pyrrolo[3,4-b]pyridin-6-yl)-2-(3-fluorophenyl)-N-(thiazol-2-yl)acetamide], the IC50 in assay [2] was found to be 1760 nM.

`CN1CCC(c2ccc(-c3ccc4c(n3)C(=O)N(C(C(=O)Nc3nccs3)c3cccc(F)c3)C4)cc2F)CC1` (centres unmarked) [Compound 20, 2-(2-(3-fluoro-4-(1-methyl-piperidin-4-yl)phenyl)-7-oxo-5,7-dihydro-6H-pyrrolo[3,4-b]pyridin-6-yl)-2-(3-fluoro-phenyl)-N-(thiazol-2-yl)-acetamide]: the values for the IC50 in assay [1], in assay [2] and in assay [3] were 0.005 µM, 20 nM and 1 nM, respectively.

Turning to `CN1CCC(c2ccc(-c3cnc4c(c3)C(=O)N(C(C(=O)Nc3nccs3)c3cccc(F)c3)C4)cc2)C1` (centres unmarked) [Compound 11, 2-(3-fluorophenyl)-2-(3-(4-(1-methylpyrrolidin-3-yl)phenyl)-5-oxo-5,7-dihydro-6H-pyrrolo-[3,4-b]pyridin-6-yl)-N-(thiazol-2-yl)acetamide], the figures for the IC50 in assay [1], in assay [2] and in assay [3] were 0.027 µM, 50 nM and 3 nM, respectively.

On to `CN1CCC(c2ccc(-c3cnc4c(c3)C(=O)N(C(C(=O)Nc3nccs3)c3cccc(F)c3)C4)cn2)CC1` (centres unmarked) [Compound 18, 2-(3-fluorophenyl)-2-(3-(6-(1-methylpiperidin-4-yl)pyridin-3-yl)-5-oxo-5,7-dihydro-6H-pyrrolo[3,4-b]pyridin-6-yl)-N-(thiazol-2-yl)acetamide], for which the IC50 in assay [1] turned out to be 0.126 µM; in assay [2], 220 nM; in assay [3], 9 nM.

For `O=C(Nc1nccs1)C(c1cccc(F)c1)N1Cc2cnc(Br)cc2C1=O` (centres unmarked) [Compound 1, 2-(6-bromo-1-oxo-1,3-dihydro-2H-pyrrolo[3,4-c]pyridin-2-yl)-2-(3-fluorophenyl)-N-(thiazol-2-yl)acetamide], the IC50 in assay [2] amounted to 5480 nM.

Take `CN1CCN(c2ccc(-c3cnc4c(c3)C(=O)N(C(C(=O)Nc3ccccn3)c3cccc(F)c3)C4)cn2)CC1` (centres unmarked) [Compound 12, 2-(3-fluorophenyl)-2-(3-(6-(4-methylpiperazin-1-yl)pyridin-3-yl)-5-oxo-5,7-dihydro-6H-pyrrolo[3,4-b]pyridin-6-yl)-N-(pyridin-2-yl)acetamide]: the figures for the IC50 in assay [1] (cells printed in μM), in assay [2] and in assay [3] were above 1 µM, 1910 nM and 41 nM, respectively.

As to `CN1CCC(c2ccc(-c3ccc4c(n3)C(=O)N(C(C(=O)Nc3nccs3)c3cccc(F)c3)C4)cn2)CC1` (centres unmarked) [Compound 17, 2-(3-fluorophenyl)-2-(2-(6-(1-methylpiperidin-4-yl)pyridin-3-yl)-7-oxo-5,7-dihydro-6H-pyrrolo[3,4-b]pyridin-6-yl)-N-(thiazol-2-yl)acetamide], the IC50 in assay [1] stood at 0.036 µM; in assay [2] it was 140 nM; in assay [3], 7 nM.

Regarding `CN1CCN(c2ccc(-c3cnc4c(c3)C(=O)N(C(C(=O)Nc3nccs3)c3cccc(F)c3)C4)cn2)CC1` (centres unmarked) [Compound 8, 2-(3-fluorophenyl)-2-(3-(6-(4-methylpiperazin-1-yl)pyridin-3-yl)-5-oxo-5,7-dihydro-6H-pyrrolo[3,4-b]pyridin-6-yl)-N-(thiazol-2-yl)acetamide], the IC50 was 0.02 µM in assay [1], 200 nM in assay [2] and 1 nM in assay [3].

`CN1CCC(c2ccc(-c3ccc4c(n3)C(=O)N(C(C(=O)Nc3nccs3)c3cccc(F)c3)C4)c(F)c2)CC1` (centres unmarked) [Compound 19, 2-(2-(2-fluoro-4-(1-methyl-piperidin-4-yl)phenyl)-7-oxo-5,7-dihydro-6H-pyrrolo[3,4-b]pyridin-6-yl)-2-(3-fluoro-phenyl)-N-(thiazol-2-yl)-acetamide]: the results for the IC50 in assay [1], in assay [2] and in assay [3] were 0.004 µM, 30 nM and 0.7 nM, respectively.

With `CN1CCC(c2ccc(-c3ccc4c(n3)C(=O)N(C(C(=O)Nc3nccs3)c3cccc(F)c3)C4)cc2)C1` (centres unmarked) [Compound 16, 2-(3-fluorophenyl)-2-(2-(4-(1-methylpyrrolidin-3-yl)phenyl)-7-oxo-5,7-dihydro-6H-pyrrolo-[3,4-b]pyridin-6-yl)-N-(thiazol-2-yl)acetamide], the IC50 in assay [1] stood at 0.006 µM; in assay [2], 40 nM; in assay [3] it was 1 nM.

As to `O=C(Nc1ccccn1)C(c1cccc(F)c1)N1Cc2ccc(Br)nc2C1=O` (centres unmarked) [Compound 5, 2-(2-bromo-7-oxo-5,7-dihydro-6H-pyrrolo[3,4-b]pyridin-6-yl)-2-(3-fluorophenyl)-N-(pyridin-2-yl)acetamide], the IC50 in assay [2] was above 10000 nM.

For `CN1CCC(c2ccc(-c3ccc4c(n3)C(=O)N(C(C(=O)Nc3nccs3)c3cccc(F)c3)C4)cc2)CC1` (centres unmarked) [Compound 13, 2-(3-fluorophenyl)-2-(2-(4-(1-methylpiperidin-4-yl)phenyl)-7-oxo-5,7-dihydro-6H-pyrrolo-[3,4-b]pyridin-6-yl)-N-(thiazol-2-yl)acetamide], the IC50 in assay [1] was 0.007 µM; in assay [2], 20 nM; in assay [3] it was 1 nM.

Regarding `CN1CCC(c2ccc(-c3cnc4c(c3)C(=O)N(C(C(=O)Nc3ccccn3)c3cc(F)ccc3O)C4)cc2)CC1` (centres unmarked) [Compound 22, 2-(5-fluoro-2-hydroxyphenyl)-2-(3-(4-(1-methylpiperidin-4-yl)phenyl)-5-oxo-5,7-dihydro-6H-pyrrolo[3,4-b]pyridin-6-yl)-N-(pyridin-2-yl)acetamide], the values for the IC50 in assay [1], in assay [2] and in assay [3] were 0.005 µM, 30 nM and 1 nM, respectively.

With `CN1CCC(c2ccc(-c3ccc4c(n3)C(=O)N(C(C(=O)Nc3ccccn3)c3cc(F)ccc3O)C4)cc2)CC1` (centres unmarked) [Compound 21, 2-(5-fluoro-2-hydroxyphenyl)-2-(2-(4-(1-methylpiperidin-4-yl)phenyl)-7-oxo-5,7-dihydro-6H-pyrrolo[3,4-b]pyridin-6-yl)-N-(pyridin-2-yl)acetamide], the results for the IC50 in assay [1], in assay [2] and in assay [3] were 0.004 µM, 10 nM and 0.4 nM, respectively.

Consider `O=C(Nc1nccs1)C(c1cccc(F)c1)N1Cc2ncc(Br)cc2C1=O` (centres unmarked) [Compound 2, 2-(3-bromo-5-oxo-5,7-dihydro-6H-pyrrolo[3,4-b]pyridin-6-yl)-2-(3-fluorophenyl)-N-(thiazol-2-yl)acetamide], for which the IC50 in assay [2] was 380 nM.
